Consider four compounds from patent US20260001928A1 (CORTERIA PHARMACEUTICALS, priority 2022, published 2026).

The nature of series [1]: Chemical stability in buffer (pH 7.4 / pH 4.5), % purity loss. As to conditions: 40° C. vs 5° C., 14 or 28 days; for Buffer stability pH 4.5 % purity loss: 100 mM acetate buffer pH 4.5; for Buffer stability pH 7.4 % purity loss: 100 mM phosphate buffer pH 7.4. The class given is physicochemical. On the procedure:
Solubility and chemical stability were studied in 100 mM phosphate buffer (pH 7.4) and 100 mM acetate buffer (pH 4.5). Test compound powders were dissolved in both buffers at a target concentration of 10 mg/mL and incubated for 1 hour at room temperature. After centrifugation at 2500 rcf for 15 minutes, 10 μL of supernatant was diluted with 190 μL of the incubation buffer and analyzed by LC-UV (Acquity UPLC-DAD, Waters). Solubility was calculated by comparing the peak area of the test compound in the buffer sample with the peak area of the same compound dissolved at 0.5 mg/mL in water:acetonitrile 1:1, 0.1% formic acid.
From the centrifuged supernatant, two additional 80 μL aliquots were collected and diluted with 160 μL of incubation buffer. One aliquot was stored at 5° C., while the other was stored at 40° C. After 14 or 28 days, the samples were analyzed by LC-UV. Chemical stability was calculated as % loss using the following equations: […]

The next series has as its target T1, human CRF2a receptor (Homo sapiens, UniProt Q13324).
T1 construct: expressed in transfected cells; host or cells: TeloHEAC cells
T1 sequence (Q13324 1-411): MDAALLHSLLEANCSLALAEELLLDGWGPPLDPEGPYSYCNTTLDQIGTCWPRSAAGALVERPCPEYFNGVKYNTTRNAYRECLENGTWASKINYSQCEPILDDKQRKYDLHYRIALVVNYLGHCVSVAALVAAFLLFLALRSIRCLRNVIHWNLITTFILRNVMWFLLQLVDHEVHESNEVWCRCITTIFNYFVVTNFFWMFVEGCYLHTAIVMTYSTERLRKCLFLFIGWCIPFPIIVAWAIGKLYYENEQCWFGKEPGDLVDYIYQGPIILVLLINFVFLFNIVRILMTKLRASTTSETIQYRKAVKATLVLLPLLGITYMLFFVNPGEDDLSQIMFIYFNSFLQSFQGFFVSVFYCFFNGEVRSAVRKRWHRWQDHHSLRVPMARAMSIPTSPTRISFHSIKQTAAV
Description: Activity at human CRF2a receptor, cAMP functional assay in TeloHEAC cells. As to conditions: TeloHEAC cells stably expressing human CRF2a receptor, relative to urocortin 2 (100 nM = 100%). The class given is cell-based. In outline:
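TeloHEAC cells stably expressing human CRF2a (10000 cells/well, suspended in HBSS/20 mM HEPES with 2 mM IBMX) were exposed to compounds for 30 min at 37 °C. cAMP was read as the 665/620 nm fluorescence ratio after 1 h at room temperature. EC50 was derived relative to 100 nM urocortin 2, set as 100%.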

The next series deals with T2, CFR1R receptor (Homo sapiens, UniProt P34998).
T2 construct: host or cells: CHO-K1 (clone 2)
T2 sequence (P34998 24-415): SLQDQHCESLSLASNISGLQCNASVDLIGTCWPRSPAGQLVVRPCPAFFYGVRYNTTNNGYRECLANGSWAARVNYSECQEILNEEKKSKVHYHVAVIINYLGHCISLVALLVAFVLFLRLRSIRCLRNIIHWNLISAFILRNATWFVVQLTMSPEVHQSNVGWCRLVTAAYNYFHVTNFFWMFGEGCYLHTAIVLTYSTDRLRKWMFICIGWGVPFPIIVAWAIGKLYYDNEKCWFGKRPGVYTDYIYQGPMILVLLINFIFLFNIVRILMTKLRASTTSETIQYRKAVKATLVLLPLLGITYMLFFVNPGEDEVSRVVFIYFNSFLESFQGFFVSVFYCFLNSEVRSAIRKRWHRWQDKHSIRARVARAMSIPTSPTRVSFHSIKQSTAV
Description: Activity at anti-target CFR1R receptor, cAMP assay in CRF1R-overexpression CHO-K1 cells. The class given is cell-based. As to conditions: 100% = Sauvagine at 100 nM; for EC50: cAMP. In a few lines:
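Run as for the TeloHAEC line, except the full-activation control well received Sauvagine (100 nM) and final density was 4000 cells/well. Cells from clone 2 came from frozen aliquots of near-confluent cultures.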
(In general: cAMP levels reflect the balance of adenylyl cyclase and phosphodiesterase activity.)

A further series deals with Sprague Dawley rats. Description: Effect on systolic blood pressure, telemetry in Sprague Dawley rats. In kind it is in vivo, rat. The note with it: 0.1 mg/kg SC. In outline:
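Sprague Dawley rats with abdominal-aorta telemetry catheters, recovered ≥10 days, received 0.1 mg/kg SC of compound or vehicle. Systolic pressure recorded 1 h pre-dose as baseline, then continuously up to 48 hours, expressed as % change from baseline; duration of action is last time point with a BP effect (n=2).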

Usually EC50 stands for the midpoint of the concentration-response curve.

*1 amine or outer side, *2 acyl side, *3 side chain or, on linkers, in order; H or OH if unused. Where a SMILES comes first, the peptide text is derived from it. Side-chain parts run from the residue outwards. [ ]: non-standard residue; d: D form. The star is where a group is joined. C20 diacid = O=C(O)CCCCCCCCCCCCCCCCCCC(=O)*; C18 diacid = O=C(O)CCCCCCCCCCCCCCCCC(=O)*; C16 diacid = O=C(O)CCCCCCCCCCCCCCC(=O)*; γGlu = O=C(O)[C@H](CCC(=O)[*:2])N[*:1]; αMeK = C[C@](N)(CCCCN)C(=O)O; AEEA = NCCOCCOCC(=O)O; Aib = CC(C)(N)C(=O)O

Regarding `CC[C@H](C)[C@H](NC(=O)[C@H](CCC(N)=O)NC(=O)[C@H](CCCCN)NC(=O)[C@H](CC(N)=O)NC(=O)[C@@H](NC(=O)[C@H](CCC(=O)O)NC(=O)[C@H](C)NC(=O)[C@H](CCC(N)=O)NC(=O)[C@H](CCC(=O)O)NC(=O)[C@H](CCCNC(=N)N)NC(=O)[C@H](CCC(N)=O)NC(=O)[C@H](CCCCN)NC(=O)[C@H](CCCCN)NC(=O)[C@H](CCC(N)=O)NC(=O)[C@H](CCCCN)NC(=O)[C@H](CCC(=O)O)NC(=O)[C@H](CCC(N)=O)NC(=O)[C@H](CCC(=O)O)NC(=O)[C@H](CC(C)C)NC(=O)[C@H](CC(C)C)NC(=O)[C@@H](NC(=O)[C@H](CCCCN)NC(=O)[C@H](CCCCNC(=O)CC[C@H](NC(=O)CCCCCCCCCCCCCCC(=O)O)C(=O)O)NC(=O)[C@H](CC(C)C)NC(=O)[C@H](CCCCN)NC(=O)[C@@H](NC(=O)[C@@H]1CCCN1C(=O)[C@H](NC(=O)[C@H](CC(=O)O)NC(=O)[C@H](CC(C)C)NC(=O)[C@H](CO)NC(=O)[C@H](CC(C)C)NC(=O)[C@@H](N)C(C)C)C(C)C)[C@@H](C)CC)[C@@H](C)CC)[C@@H](C)O)C(=O)N[C@@H](CC(C)C)C(=O)N[C@@H](C)C(=O)N[C@@H](CCC(N)=O)C(=O)N[C@H](C(N)=O)C(C)C` [compound 34] (H-VLSLD[dV]PIKLK([γGlu-C16 diacid])KILLEQEKQKKQREQAETNKQILAQV-NH2), in series [1], the “Buffer stability pH 4.5 % purity loss” value worked out at 0% and the “Buffer stability pH 7.4 % purity loss” value was determined as 4.5%. The EC50 on human CRF2a receptor is 1.61 nM. Moreover, on CFR1R receptor, the “Emax (% I)” value turned out to be 0 % I and the EC50 is > 250 nM.
On to `CC[C@H](C)[C@H](NC(C)=O)C(=O)N[C@H](C(=O)N[C@@H](CC(C)C)C(=O)N[C@@H](CO)C(=O)N[C@@H](CC(C)C)C(=O)N[C@@H](CC(=O)O)C(=O)N[C@@H](C(=O)N1CCC[C@H]1C(=O)N[C@H](C(=O)N[C@@H](CCCCN)C(=O)N[C@@H](CC(C)C)C(=O)N[C@@H](CCCCNC(=O)CC[C@H](NC(=O)CCCCCCCCCCCCCCC(=O)O)C(=O)O)C(=O)N[C@@H](CCCCN)C(=O)N[C@H](C(=O)N[C@@H](CC(C)C)C(=O)N[C@@H](CC(C)C)C(=O)N[C@@H](CCC(=O)O)C(=O)N[C@@H](CCC(N)=O)C(=O)N[C@@H](CCC(=O)O)C(=O)N[C@@H](CCCCN)C(=O)N[C@@H](CCC(N)=O)C(=O)N[C@@H](CCCCN)C(=O)N[C@@H](CCCCN)C(=O)N[C@@H](CCC(N)=O)C(=O)N[C@@H](CCCNC(=N)N)C(=O)N[C@@H](CCC(=O)O)C(=O)N[C@@H](CCC(N)=O)C(=O)N[C@@H](C)C(=O)N[C@@H](CCC(=O)O)C(=O)N[C@H](C(=O)N[C@@H](CC(N)=O)C(=O)N[C@@](C)(CCCCN)C(=O)N[C@@H](CCC(N)=O)C(=O)N[C@H](C(=O)N[C@@H](CC(C)C)C(=O)N[C@@H](C)C(=O)N[C@@H](CCC(N)=O)C(=O)N[C@H](C(N)=O)C(C)C)[C@@H](C)CC)[C@@H](C)O)[C@@H](C)CC)[C@@H](C)CC)C(C)C)C(C)C` [compound 54] (Ac-IVLSLD[dV]PIKLK([γGlu-C16 diacid])KILLEQEKQKKQREQAETN[αMeK]QILAQV-NH2), for which the “Buffer stability pH 4.5 % purity loss” value in series [1] is “nd/0 ^ %”. On human CRF2a receptor, the EC50 came to 0.12 nM. On CFR1R receptor, the “Emax (% I)” value was determined as 20 % I and the EC50 was > 250 nM.
On to `CC[C@H](C)[C@H](NC(=O)[C@H](CCC(N)=O)NC(=O)[C@H](CCCCN)NC(=O)[C@H](CC(N)=O)NC(=O)[C@@H](NC(=O)[C@H](CCC(=O)O)NC(=O)[C@H](C)NC(=O)[C@H](CCC(N)=O)NC(=O)[C@H](CCC(=O)O)NC(=O)[C@H](CCCNC(=N)N)NC(=O)[C@H](CCC(N)=O)NC(=O)[C@H](CCCCN)NC(=O)[C@H](CCCCN)NC(=O)[C@H](CCC(N)=O)NC(=O)[C@H](CCCCN)NC(=O)[C@H](CCC(=O)O)NC(=O)[C@H](CCC(N)=O)NC(=O)[C@H](CCC(=O)O)NC(=O)[C@H](CC(C)C)NC(=O)[C@H](CC(C)C)NC(=O)[C@@H](NC(=O)[C@H](CCCCN)NC(=O)[C@H](CCCCNC(=O)COCCOCCNC(=O)COCCOCCNC(=O)CC[C@H](NC(=O)CCCCCCCCCCCCCCCCC(=O)O)C(=O)O)NC(=O)[C@H](CC(C)C)NC(=O)[C@H](CCCCN)NC(=O)[C@@H](NC(=O)[C@@H]1CCCN1C(=O)[C@H](NC(=O)[C@H](CC(=O)O)NC(=O)[C@H](CC(C)C)NC(=O)[C@H](CO)NC(=O)[C@H](CC(C)C)NC(=O)[C@@H](NC(C)=O)C(C)C)C(C)C)[C@@H](C)CC)[C@@H](C)CC)[C@@H](C)O)C(=O)N[C@@H](CC(C)C)C(=O)N[C@@H](C)C(=O)N[C@@H](CCC(N)=O)C(=O)N[C@H](C(N)=O)C(C)C` [compound 92] (Ac-VLSLD[dV]PIKLK([AEEA-AEEA-γGlu-C18 diacid])KILLEQEKQKKQREQAETNKQILAQV-NH2), for which, in series [1], the “Buffer stability pH 4.5 % purity loss” value stood at 0% and the “Buffer stability pH 7.4 % purity loss” value is 16.8%. On human CRF2a receptor, this compound showed an EC50 of 2.3 nM. Also, at CFR1R receptor, the “Emax (% I)” value turned out to be 5 % I and the EC50 is > 250 nM.
Take `CC[C@H](C)[C@H](NC(C)=O)C(=O)N[C@H](C(=O)N[C@@H](CC(C)C)C(=O)N[C@@H](CO)C(=O)N[C@@H](CC(C)C)C(=O)N[C@@H](CC(=O)O)C(=O)N[C@@H](C(=O)N1CCC[C@H]1C(=O)N[C@H](C(=O)N[C@@H](CCCCN)C(=O)N[C@@H](CC(C)C)C(=O)N[C@@H](CCCCNC(=O)COCCOCCNC(=O)CC[C@H](NC(=O)CCCCCCCCCCCCCCCCCCC(=O)O)C(=O)O)C(=O)N[C@@H](CCCCN)C(=O)N[C@H](C(=O)N[C@@H](CC(C)C)C(=O)N[C@@H](CC(C)C)C(=O)N[C@@H](CCC(=O)O)C(=O)N[C@@H](CCC(N)=O)C(=O)N[C@@H](CCC(=O)O)C(=O)N[C@@H](CCCCN)C(=O)N[C@@H](CCC(N)=O)C(=O)N[C@@H](CCCCN)C(=O)N[C@@H](CCCCN)C(=O)N[C@@H](CCC(N)=O)C(=O)N[C@@H](CCCNC(=N)N)C(=O)N[C@@H](CCC(=O)O)C(=O)N[C@@H](CCC(N)=O)C(=O)N[C@@H](C)C(=O)N[C@@H](CCC(=O)O)C(=O)N[C@H](C(=O)N[C@@H](CC(N)=O)C(=O)NC(C)(C)C(=O)N[C@@H](CCC(N)=O)C(=O)N[C@H](C(=O)N[C@@H](CC(C)C)C(=O)N[C@@H](C)C(=O)N[C@@H](CCC(N)=O)C(=O)N[C@H](C(N)=O)C(C)C)[C@@H](C)CC)[C@@H](C)O)[C@@H](C)CC)[C@@H](C)CC)C(C)C)C(C)C` [compound 230] (Ac-IVLSLD[dV]PIKLK([AEEA-γGlu-C20 diacid])KILLEQEKQKKQREQAETN[Aib]QILAQV-NH2): the “Systolic blood pressure (Mean) % change from baseline, 8 h” value in the series on Sprague Dawley rats (8 h, n=2) is −15%. The “Systolic blood pressure (Mean) % change from baseline, 12 h” value in the series with Sprague Dawley rats (12 h, n=2) is on record as −16%. In addition, the “Systolic blood pressure (Mean) % change from baseline, 24 h” value in the series with Sprague Dawley rats (24 h, n=2) came to 3%. The compound also displayed a Duration of action in the series on Sprague Dawley rats (last time point with an effect on BP still observed) of 23 h. On human CRF2a receptor, the midpoint of the response, the EC50, lay at 0.16 nM. Further, at CFR1R receptor, the “Emax (% I)” value is on record as 30 % I and the EC50 was > 250 nM.
